Assay results: the supplement of paper PMC4862054

Tests used:
Assay in all cases: normalised viability (% of control), CellTiter-Blue; higher = more viable cells (about 100 = DMSO control)
[1] = tested on: MFM-223; settings: 100 nM; incubation time: 72 h
Procedure: (§1)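 DSRT, CellTiter-Blue viability, 72 h incubation. Signal is normalised to DMSO and benzethonium chloride controls. Value is the normalised response at dose 3.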

[2] = tested on: MDA-MB-231; settings: 100 nM; incubation time: 72 h
Procedure: as §1

[3] = tested on: CAL-148; settings: 10 nM; incubation time: 72 h
Procedure: as §1

[4] = tested on: MDA-MB-436; settings: 100 nM; incubation time: 72 h
Procedure: as §1

[5] = tested on: CAL-85-1; settings: 10 nM; incubation time: 72 h
Procedure: as §1

[6] = tested on: SK-BR-3; settings: 100 nM; incubation time: 72 h
Procedure: as §1

[7] = tested on: HDQ-P1; settings: 10 nM; incubation time: 72 h
Procedure: as §1

[8] = tested on: HCC1143; settings: 100 nM; incubation time: 72 h
Procedure: as §1

[9] = tested on: Hs578T; settings: 100 nM; incubation time: 72 h
Procedure: as §1

[10] = tested on: DU-4475; settings: 10 nM; incubation time: 72 h
Procedure: as §1

[11] = tested on: BT-549; settings: 100 nM; incubation time: 72 h
Procedure: as §1

[12] = tested on: MDA-MB-453; settings: 10 nM; incubation time: 72 h
Procedure: as §1

[13] = tested on: CAL-120; settings: 100 nM; incubation time: 72 h
Procedure: as §1

[14] = tested on: BT-474; settings: 100 nM; incubation time: 72 h
Procedure: as §1

[15] = tested on: HCC1937; settings: 100 nM; incubation time: 72 h
Procedure: as §1

[16] = tested on: HCC1599; settings: 100 nM; incubation time: 72 h
Procedure: as §1

[17] = tested on: CAL-51; settings: 10 nM; incubation time: 72 h
Procedure: as §1

[18] = tested on: MDA-MB-468; settings: 100 nM; incubation time: 72 h
Procedure: as §1

[19] = tested on: MFM-223; settings: incubation time: 72 h
Method in brief: (§2)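 Each value is normalised viability at a single listed concentration of the series. Breast cancer cell lines in 384-well plates were incubated 72 h with compound and read by CellTiter-Blue fluorescence at 560/590 nm, with vehicle set to 100 and a positive kill control to 0 on every plate.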

[20] = tested on: MDA-MB-231; settings: incubation time: 72 h
Method in brief: as §2

[21] = tested on: CAL-148; settings: incubation time: 72 h
Method in brief: as §2

[22] = tested on: MDA-MB-436; settings: incubation time: 72 h
Method in brief: as §2

[23] = tested on: CAL-85-1; settings: incubation time: 72 h
Method in brief: as §2

[24] = tested on: SK-BR-3; settings: incubation time: 72 h
Method in brief: as §2

[25] = tested on: HDQ-P1; settings: incubation time: 72 h
Method in brief: as §2

[26] = tested on: HCC1143; settings: incubation time: 72 h
Method in brief: as §2

[27] = tested on: Hs578T; settings: incubation time: 72 h
Method in brief: as §2

[28] = tested on: DU-4475; settings: incubation time: 72 h
Method in brief: as §2

[29] = tested on: BT-549; settings: incubation time: 72 h
Method in brief: as §2

[30] = tested on: MDA-MB-453; settings: incubation time: 72 h
Method in brief: as §2

[31] = tested on: CAL-120; settings: incubation time: 72 h
Method in brief: as §2

[32] = tested on: BT-474; settings: incubation time: 72 h
Method in brief: as §2

[33] = tested on: HCC1937; settings: incubation time: 72 h
Method in brief: as §2

[34] = tested on: HCC1599; settings: incubation time: 72 h
Method in brief: as §2

[35] = tested on: CAL-51; settings: incubation time: 72 h
Method in brief: as §2

[36] = tested on: MDA-MB-468; settings: incubation time: 72 h
Method in brief: as §2

O=P(O)(O)C(O)(Cn1ccnc1)P(=O)(O)O [Zoledronic acid]
Settings | normalised viability [%]
[1] | 91.7
[2] | 93.9
[3] | 86.5
[4] | 113
[5] | 90.2
[6] | 91
[7] | 91.5
[8] | 89.1
[9] | 85.3
[10] | 97.7
[11] | 101
[12] | 96.2
[13] | 94.2
[14] | 102
[15] | 102
[16] | 109
[17] | 116
[18] | 117

normalised viability [%]
Settings | 3 nM | 10 nM | 30 nM | 100 nM | 1000 nM | 10000 nM
[19] | – | 99.3 | – | – | 86.5 | 97.2
[20] | – | 92.2 | – | – | 89.3 | 95.9
[21] | 92.2 | – | 84.4 | 92.6 | – | –
[22] | – | 95 | – | – | 89.2 | 94.3
[23] | 91.6 | – | 83.2 | 96.5 | – | –
[24] | – | 106 | – | – | 93.9 | 96.5
[25] | 94.6 | – | 91.9 | 84.1 | – | –
[26] | – | 82 | – | – | 85.2 | 85.2
[27] | – | 95.1 | – | – | 113 | 98.2
[28] | 107 | – | 95.8 | 99.8 | – | –
[29] | – | 92.5 | – | – | 108 | 91.3
[30] | 101 | – | 96 | 101 | – | –
[31] | – | 81.2 | – | – | 98 | 91.8
[32] | – | 103 | – | – | 103 | 117
[33] | – | 96.4 | – | – | 95.5 | 99.7
[34] | – | 94.1 | – | – | 75.3 | 95.4
[35] | 108 | – | 116 | 102 | – | –
[36] | – | 107 | – | – | 102 | 111
